Among the test systems are HCT-15; SF-268; KM12; MDA-MB-231; UACC-257; RXF 393; PC-3; CAKI-1; UACC-62; HOP-92; HOP-62; IGROV-1; SF-539; K562; SNB-75; SK-MEL-5; OVCAR-3; SF-295; Hs-578T.
Common to all, as to assay: NCI anticancer screen, dose series, 48 h

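Method: 48-hour compound exposure of cells in 96-well plates, five concentrations, linear interpolation of endpoints. Abbreviation: GI50, concentration required for 50% inhibition of growth.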 The source made the active and inactive calls. Rule as the data show it: active = GI50 up to about 1.1 µM and inactive = higher.

For `Cc1cn([C@@H]2C[C@H]2CO)c(=O)[nH]c1=O`, the GI50 in the test with HCT-15 was more than 100 µM; with SF-268, > 100 µM (inactive); in the test on KM12, > 100 µM (inactive); in the test on MDA-MB-231 it was > 100 µM (inactive); in the test on UACC-257, > 100 µM (inactive); in the test on RXF 393, > 100 µM (inactive). Also, the GI50 with PC-3, in the test with CAKI-1, in the test with UACC-62, in the test on HOP-92, in the test with HOP-62 and with IGROV-1 was > 100 µM (inactive) in each case. Further, the GI50 is 57 µM (inactive) in the test on SF-539, > 100 µM (inactive) with K562, > 100 µM (inactive) with SNB-75 and > 100 µM (inactive) in the test on SK-MEL-5.
On to `OCC1O[C@H](O[C@@H]2CCCN3CC(O)C(O)[C@@H]23)C(O)C(O)C1O` (stereo partly drawn), for which the GI50 in the test with HCT-15 was more than 100 µM; in the test on SF-268 it was > 100 µM (inactive); in the test on KM12, > 100 µM (inactive); in the test with UACC-257 it was > 100 µM (inactive); in the test on OVCAR-3, > 100 µM (inactive); in the test with CAKI-1, > 100 µM (inactive). The GI50 in the test on UACC-62, in the test on HOP-92, with HOP-62, with IGROV-1, in the test with SF-295 and in the test with SF-539 was > 100 µM (inactive) in each case. Moreover, the GI50 with K562, with SNB-75 and in the test on SK-MEL-5 was > 100 µM (inactive) each time.
`COc1cc(C2c3cc4c(cc3[C@@H](Nc3ccc(C(=O)O)cc3)C3COC(=O)[C@H]23)OCO4)cc(OC)c1O` (stereo partly drawn): the GI50 with HCT-15 is 13.4 µM; in the test with SF-268, 14.6 µM (inactive); with KM12, 21.6 µM (inactive); in the test on UACC-257, 27.2 µM (inactive); in the test on RXF 393 it was 9.35 µM (inactive); with OVCAR-3, 20 µM (inactive). Moreover, the GI50 with CAKI-1 is 4.98 µM (inactive); with UACC-62 it was 10.6 µM (inactive); with HOP-92, 2.46 µM (inactive); in the test with HOP-62 it was 8.15 µM (inactive); in the test with IGROV-1, 17.8 µM (inactive); with SF-295, 14.1 µM (inactive). Further, the GI50 was 6.56 µM (inactive) in the test with SF-539, 13.2 µM (inactive) with SNB-75 and 12.1 µM (inactive) in the test on SK-MEL-5.
As for `O=C1N/C(=N\C2CCCCC2)C2(CCN(CCCC3(c4ccc(F)cc4)OCCO3)CC2)N1c1ccccc1`, the GI50 with HCT-15 is 18.1 µM; in the test with SF-268 it was 21.5 µM (inactive); in the test on KM12, 18 µM (inactive); in the test on UACC-257, 15.1 µM (inactive); in the test on RXF 393 it was 17.3 µM (inactive); with OVCAR-3, 11.8 µM (inactive). Besides, the GI50 with PC-3 was 19.3 µM (inactive); with CAKI-1, 22.8 µM (inactive); in the test on UACC-62 it was > 10 µM (inactive); in the test with HOP-62, 17.5 µM (inactive); in the test on SF-295, 19.9 µM (inactive); with SF-539 it was 17 µM (inactive). Moreover, the figures for the GI50 in the test on Hs-578T, in the test with SNB-75 and in the test on SK-MEL-5 were 14.4 µM (inactive), 14.3 µM (inactive) and 15 µM (inactive), respectively.
With `CCOC(=O)c1c(SCc2cc(=O)[nH]c(=O)[nH]2)n(-c2ccccc2)c(=S)n(-c2ccccc2)c1=O`, the GI50 in the test with HCT-15 is more than 100 µM; with SF-268, > 100 µM (inactive); with KM12, > 100 µM (inactive); in the test on MDA-MB-231, > 100 µM (inactive); with UACC-257, > 100 µM (inactive); with RXF 393 it was > 100 µM (inactive). Besides, the GI50 in the test with OVCAR-3, in the test with PC-3, in the test on CAKI-1, in the test with UACC-62, with HOP-62 and in the test with IGROV-1 was > 100 µM (inactive) throughout. Also, the GI50 in the test with SF-539, in the test on K562, in the test on SNB-75 and in the test on SK-MEL-5 was > 100 µM (inactive) throughout.
`O=C(O)CNS(=O)(=O)c1ccc(NC(=O)c2ccc([N+](=O)[O-])cc2)cc1`: the GI50 is more than 100 µM in the test with HCT-15; > 100 µM (inactive) in the test with SF-268; > 100 µM (inactive) with KM12; > 100 µM (inactive) in the test with UACC-257; > 100 µM (inactive) in the test on RXF 393; > 100 µM (inactive) in the test on OVCAR-3. The GI50 with CAKI-1, with UACC-62, in the test on HOP-92, in the test on IGROV-1, with SF-295 and in the test with SF-539 was > 100 µM (inactive) each time. The GI50 in the test on K562, in the test on SNB-75 and in the test on SK-MEL-5 was > 100 µM (inactive) throughout.
`CN1CN(c2ccccc2)C2(CCN(CCC3COc4ccccc4O3)CC2)C1=O` (stereo not drawn): the GI50 was 24.8 µM with HCT-15; 33.8 µM (inactive) in the test on SF-268; 24.7 µM (inactive) in the test on KM12; 31.9 µM (inactive) in the test on MDA-MB-231; 12.5 µM (inactive) in the test with UACC-257; 31.1 µM (inactive) in the test with RXF 393. Moreover, the GI50 in the test with OVCAR-3 is 19.9 µM (inactive); in the test with PC-3, 27.8 µM (inactive); in the test on CAKI-1, 28.2 µM (inactive); in the test with UACC-62, 27.5 µM (inactive); in the test with HOP-62 it was > 10 µM (inactive); in the test with IGROV-1, 17.6 µM (inactive). Moreover, the GI50 in the test on SF-295 is 21.4 µM (inactive); in the test with SF-539 it was 18.8 µM (inactive); in the test with K562, 20.1 µM (inactive); in the test with SNB-75, 38.2 µM (inactive); in the test with SK-MEL-5 it was 12.9 µM (inactive).
For the compound `CCOC(=O)NC(NCC(O)c1ccccc1)(C(F)(F)F)C(F)(F)F` (stereo not drawn), the GI50 in the test on HCT-15 is more than 100 µM; in the test on SF-268 it was > 100 µM (inactive); with KM12, > 100 µM (inactive); in the test on MDA-MB-231, > 100 µM (inactive); in the test with UACC-257, > 100 µM (inactive); in the test on RXF 393 it was 43.4 µM (inactive). Further, the GI50 in the test on OVCAR-3, in the test on CAKI-1, with UACC-62, in the test with HOP-92, in the test with HOP-62 and in the test on IGROV-1 was > 100 µM (inactive) each time. Also, the GI50 with SF-539, in the test with Hs-578T, with K562, with SNB-75 and with SK-MEL-5 was > 100 µM (inactive) each time.
With `CC[C@@]1(O)C(=O)OCc2c1cc1n(c2=O)Cc2c-1nc1ccccc1c2/C=N\NC(=O)C(N)CCSC` (stereo partly drawn), the GI50 in the test with HCT-15 is 0.39 µM; with SF-268 it was < 0.01 µM (active); in the test on KM12 it was 0.254 µM (active); in the test with MDA-MB-231 it was 1.24 µM (inactive); in the test with UACC-257, 0.228 µM (active); in the test with RXF 393 it was < 0.0146 µM (active). Further, the GI50 in the test on OVCAR-3 was 0.352 µM (active); in the test with PC-3, 0.13 µM (active); with CAKI-1, < 0.01 µM (active); in the test with UACC-62, < 0.01 µM (active); in the test on HOP-92, 0.0863 µM (active); in the test with HOP-62, < 0.01 µM (active). Besides, the GI50 in the test with IGROV-1 is 0.239 µM (active); in the test with SF-295 it was < 0.01 µM (active); with SF-539, < 0.01 µM (active); with K562, 0.0109 µM (active); in the test on SNB-75 it was < 0.01 µM (active); in the test with SK-MEL-5 it was 0.0149 µM (active).
On to `C[Si](C)(C)CNC(=O)OCc1ccccc1`, for which the GI50 in the test with HCT-15 was more than 100 µM; in the test with SF-268 it was > 100 µM (inactive); in the test on KM12 it was > 100 µM (inactive); in the test with MDA-MB-231, > 100 µM (inactive); in the test with UACC-257 it was > 100 µM (inactive); with OVCAR-3 it was > 100 µM (inactive). In addition, the GI50 was > 100 µM (inactive) in the test on PC-3; > 100 µM (inactive) in the test with CAKI-1; > 100 µM (inactive) in the test with UACC-62; 22.1 µM (inactive) with HOP-92; 58.1 µM (inactive) in the test with HOP-62; > 100 µM (inactive) with IGROV-1. Also, the GI50 with SF-295 is > 100 µM (inactive); with SF-539 it was > 100 µM (inactive); in the test on K562, 48.9 µM (inactive); in the test on SNB-75, 90.4 µM (inactive); with SK-MEL-5, 57.7 µM (inactive).
For the compound `COc1ccc2c(c1)OCC1=C2Oc2ccccc2C1`, the GI50 with HCT-15 was 31 µM; in the test on SF-268, 81.3 µM (inactive); in the test with KM12 it was 55.8 µM (inactive); with MDA-MB-231, 23.5 µM (inactive); in the test on UACC-257 it was 31.2 µM (inactive); in the test on OVCAR-3, 33.6 µM (inactive). Moreover, the GI50 in the test on PC-3 is 34.8 µM (inactive); in the test on CAKI-1 it was 49.7 µM (inactive); in the test on UACC-62 it was 69 µM (inactive); in the test with HOP-62, 55.3 µM (inactive); with IGROV-1, 7.19 µM (inactive); in the test with SF-295, 41.5 µM (inactive). For the same compound, the GI50 was 27.5 µM (inactive) in the test with SF-539, 22.1 µM (inactive) with K562, 3.12 µM (inactive) with SNB-75 and 13.9 µM (inactive) with SK-MEL-5.
As to `CC(C)(C)[Si](C)(C)OCCCCC1CC2(S(=O)(=O)C3=CC=C=C=C3)ON1CC2S(=O)(=O)c1ccccc1` (stereo not drawn), the GI50 with HCT-15 is more than 100 µM; with SF-268 it was > 100 µM (inactive); with KM12 it was > 100 µM (inactive); in the test on MDA-MB-231, > 100 µM (inactive); in the test on UACC-257, 84.9 µM (inactive); with RXF 393 it was > 100 µM (inactive). Moreover, the GI50 in the test with OVCAR-3, with UACC-62, in the test on HOP-92, in the test on HOP-62, in the test with IGROV-1 and in the test with SF-539 was > 100 µM (inactive) in each case. Besides, the GI50 in the test on Hs-578T, in the test with K562, with SNB-75 and in the test with SK-MEL-5 was > 100 µM (inactive) throughout.
